In series [1] the target is recombinantly produced μ-opioid receptor (Homo sapiens, UniProt P35372). Briefly: Affinity to recombinantly produced μ-opioid receptor. Format: binding. As to conditions: in humans; relative to morphine.
The test system of another series is pain. In words: Clinical studies of pain-alleviating action compared with morphine. It is filed as in vivo, human.
For series [2], the system named is moderate to severe pain due to arthrosis of the knee. Briefly: Randomised, placebo-controlled double-blind study, tapentadol PR vs oxycodone HCl CR, 28 days (Example 1). Format: in vivo, human. Particulars: compared with oxycodone. The protocol:
The efficacy and tolerability of tapentadol with prolonged release (prolonged release (PR)) and oxycodone HCl with controlled release (controlled release (CR)) were compared with a placebo in patients with moderate to severe pain due to arthrosis of the knee.
Patients (N=670) were randomly selected and treated over 28 days twice with tapentadol PR 100 mg, with tapentadol PR 200 mg, with oxycodone HCl CR 20 mg or with a placebo. The dose was titrated at the start of the treatment. The primary efficacy endpoint was the average perception of pain during the preceding 24 hours at the time of the last medical examination (final visit) based on a visual analog 100-mm sale (VAS, 0 mm=no pain, 100 mm=worst pain imaginable)).
The study consisted of a 14-day, double-blind titration phase (3 days->11 days) followed by a 14-day double-blind maintenance phase (at the highest dose of the titration scheme in each case; see FIG. 1):
tapentadol PR 100 mg: 25 mg (bid)->50 mg (bid)->100 mg (bid);
tapentadol PR 200 mg: 100 mg (bid)->150 mg (bid)->200 mg (bid);
oxycodone HCl CR 20 mg: 10 mg (bid)->10 mg (bid)->20 mg (bid).

Chain of recombinantly produced μ-opioid receptor (P35372 whole entry): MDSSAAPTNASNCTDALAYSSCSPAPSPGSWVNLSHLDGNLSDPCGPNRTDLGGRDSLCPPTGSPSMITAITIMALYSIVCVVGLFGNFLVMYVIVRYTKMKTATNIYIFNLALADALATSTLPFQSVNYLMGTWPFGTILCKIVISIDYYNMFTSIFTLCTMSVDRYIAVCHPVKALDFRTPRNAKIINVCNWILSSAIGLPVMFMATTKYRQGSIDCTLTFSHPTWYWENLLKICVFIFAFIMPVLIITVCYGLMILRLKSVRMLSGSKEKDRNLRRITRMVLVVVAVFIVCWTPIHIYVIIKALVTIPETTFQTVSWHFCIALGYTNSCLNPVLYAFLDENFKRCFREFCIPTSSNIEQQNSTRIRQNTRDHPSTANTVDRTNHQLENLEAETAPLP

As to `CC[C@@H](c1cccc(O)c1)[C@@H](C)CN(C)C` [tapentadol, (−)-(1R,2R)-3-(3-dimethylamino-1-ethyl-2-methyl-propyl)-phenol], in series [1], the “affinity to the recombinantly produced μ-opioid receptor, times less than that of morphine” value is reported as 18 times. In addition, the “pain-alleviating action relative to morphine” value with pain was “two to three times less than that of morphine”. In addition, the “tolerability with respect to gastrointestinal and central nervous system side effects” value in series [2] was “better tolerated than oxycodone”.
